Laboratory results published in ChEMBL document CHEMBL1138236, “Novel aminophenyl benzamide-type histone deacetylase inhibitors with enhanced potency and selectivity” (J Med Chem, 2007).

Columns and labels:
[1] = biological target: Histone deacetylase 3 (Homo sapiens, UniProt O15379); experiment: Inhibition of human recombinant HDAC3
[2] = biological target: T1, Histone deacetylase 8 (Homo sapiens, UniProt Q9BY41); experiment: Inhibition of human recombinant HDAC8
T1 sequence (Q9BY41 whole entry): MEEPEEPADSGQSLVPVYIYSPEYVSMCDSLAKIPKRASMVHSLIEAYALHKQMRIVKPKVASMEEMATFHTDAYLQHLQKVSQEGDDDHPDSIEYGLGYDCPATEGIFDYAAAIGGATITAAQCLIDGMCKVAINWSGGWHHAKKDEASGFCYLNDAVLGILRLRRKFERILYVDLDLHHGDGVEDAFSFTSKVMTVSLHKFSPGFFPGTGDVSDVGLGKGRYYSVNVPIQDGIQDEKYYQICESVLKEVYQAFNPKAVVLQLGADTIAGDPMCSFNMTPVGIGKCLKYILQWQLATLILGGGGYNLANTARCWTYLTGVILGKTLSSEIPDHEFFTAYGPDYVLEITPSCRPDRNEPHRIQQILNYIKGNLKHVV

[3] = biological target: Histone deacetylase; experiment: Inhibition of HDAC in 293T cells; type: cell-based, Homo sapiens
[4] = system: HCT-116; experiment: Cytotoxicity against human HCT116 cells by MTT assay; type: functional, cell-based
[5] = Cytotoxicity against human mammary epithelial cells by MTT assay; type: cell-based; settings: Epithelial cell
[6] = biological target: Histone deacetylase 1 (Homo sapiens, UniProt Q13547)
Chain of Histone deacetylase 1 (Q13547 whole entry): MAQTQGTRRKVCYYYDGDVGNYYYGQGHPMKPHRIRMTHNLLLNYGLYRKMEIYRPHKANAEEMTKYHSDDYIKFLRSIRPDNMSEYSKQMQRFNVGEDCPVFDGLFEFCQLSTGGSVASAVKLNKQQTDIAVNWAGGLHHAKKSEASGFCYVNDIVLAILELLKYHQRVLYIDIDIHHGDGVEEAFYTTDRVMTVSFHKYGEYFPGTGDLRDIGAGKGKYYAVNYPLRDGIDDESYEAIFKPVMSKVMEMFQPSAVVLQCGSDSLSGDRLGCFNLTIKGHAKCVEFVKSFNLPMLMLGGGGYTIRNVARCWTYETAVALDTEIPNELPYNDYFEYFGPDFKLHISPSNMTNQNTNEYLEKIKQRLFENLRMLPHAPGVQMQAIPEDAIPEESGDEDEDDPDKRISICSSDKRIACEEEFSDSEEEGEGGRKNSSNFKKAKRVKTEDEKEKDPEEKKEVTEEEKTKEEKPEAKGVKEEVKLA
Description: Inhibition of human recombinant HDAC1

[7] = biological target: Histone deacetylase 2 (Homo sapiens, UniProt Q92769)
Chain of Histone deacetylase 2 (Q92769 whole entry): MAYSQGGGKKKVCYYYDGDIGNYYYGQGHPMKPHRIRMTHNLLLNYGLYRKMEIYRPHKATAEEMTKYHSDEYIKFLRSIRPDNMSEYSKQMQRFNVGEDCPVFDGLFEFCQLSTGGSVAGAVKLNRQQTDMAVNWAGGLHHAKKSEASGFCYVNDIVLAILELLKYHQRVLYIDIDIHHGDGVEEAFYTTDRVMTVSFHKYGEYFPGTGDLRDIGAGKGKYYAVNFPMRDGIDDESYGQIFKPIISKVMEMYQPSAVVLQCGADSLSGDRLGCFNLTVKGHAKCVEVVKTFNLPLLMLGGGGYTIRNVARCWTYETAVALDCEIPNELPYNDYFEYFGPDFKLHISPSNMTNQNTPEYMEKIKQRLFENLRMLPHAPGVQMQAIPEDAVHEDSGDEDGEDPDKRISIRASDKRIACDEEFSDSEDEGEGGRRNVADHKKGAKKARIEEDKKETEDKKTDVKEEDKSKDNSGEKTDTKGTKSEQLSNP
Description: Inhibition of human recombinant HDAC2

Chain of Histone deacetylase 3 (O15379 whole entry): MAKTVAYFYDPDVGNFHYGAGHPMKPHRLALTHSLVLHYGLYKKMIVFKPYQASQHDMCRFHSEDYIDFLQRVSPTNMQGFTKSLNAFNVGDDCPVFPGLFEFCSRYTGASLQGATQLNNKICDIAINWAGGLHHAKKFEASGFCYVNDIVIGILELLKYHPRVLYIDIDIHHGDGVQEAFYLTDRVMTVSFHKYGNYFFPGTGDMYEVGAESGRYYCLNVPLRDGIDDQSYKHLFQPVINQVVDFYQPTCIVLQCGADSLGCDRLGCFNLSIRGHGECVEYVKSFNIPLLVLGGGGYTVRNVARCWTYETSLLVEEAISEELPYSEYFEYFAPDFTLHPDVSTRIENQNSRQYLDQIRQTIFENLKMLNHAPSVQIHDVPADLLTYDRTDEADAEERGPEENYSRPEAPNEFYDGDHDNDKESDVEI

**Q.** Which IC50 [1] does the source give for Nc1ccc(-c2cccs2)cc1NC(=O)c1ccc2nccnc2c1 here?
**A.** The IC50 was over 20 µM.

**Q.** What about the IC50 [2] of the same molecule?
**A.** Its IC50 is over 20 µM.

**Q.** What about the IC50 [3] of the same molecule?
**A.** The IC50 was 0.9 µM.

**Q.** And the IC50 [4]?
**A.** The IC50 was 0.9 µM.

**Q.** And the IC50 [5]?
**A.** Its IC50 is 26 µM.

**Q.** What about the IC50 [6] of the same molecule?
**A.** Its IC50 is 0.06 µM.

**Q.** What about the IC50 [7] of the same molecule?
**A.** Its IC50 is 0.2 µM.

**Q.** What does the source list for COc1ccc(NCc2ccc(C(=O)Nc3cc(-c4cccs4)ccc3O)cc2)cc1OC?
**A.** IC50 [6]: 0.04 µM; IC50 [7]: 0.06 µM

**Q.** With Nc1ccccc1NC(=O)c1ccc2nccnc2c1 as the molecule, how does the IC50 [1] read?
**A.** The IC50 was over 20 µM.

**Q.** And the IC50 [2]?
**A.** Its IC50 is over 20 µM.

**Q.** What about the IC50 [3] of the same molecule?
**A.** Its IC50 is 3 µM.

**Q.** What about the IC50 [4] of the same molecule?
**A.** Its IC50 is 11 µM.

**Q.** And the IC50 [5]?
**A.** The IC50 was over 50 µM.

**Q.** What about the IC50 [6] of the same molecule?
**A.** Its IC50 is 2 µM.

**Q.** And the IC50 [7]?
**A.** The IC50 was 2 µM.

**Q.** With COc1ccc(NCc2ccc(C(=O)Nc3cc(-c4ccsc4)ccc3N)cc2)cc1OC as the molecule, how does the IC50 [7] read?
**A.** Its IC50 is 0.06 µM.

**Q.** What does the source list for COc1ccc(NCc2ccc(C(=O)Nc3cc(-c4cccs4)ccc3N)cc2)cc1OC?
**A.** IC50 [6]: 0.05 µM; IC50 [7]: 0.08 µM

**Q.** For COc1ccc(NCc2ccc(C(=O)Nc3cc(-c4cc5ccccc5s4)ccc3N)cc2)cc1OC, which IC50 [6] is on record?
**A.** Its IC50 is over 10 µM.

**Q.** And the IC50 [7]?
**A.** The IC50 was over 10 µM.

**Q.** Which IC50 [7] does the source give for COc1ccc(NCc2ccc(C(=O)Nc3ccccc3O)cc2)cc1OC here?
**A.** The IC50 was 0.2 µM.

**Q.** What does the source list for COc1ccc(NCc2ccc(C(=O)Nc3ccc(-c4cccs4)cc3N)cc2)cc1OC?
**A.** IC50 [6]: > 10 µM; IC50 [7]: > 10 µM

**Q.** Which results are given for O=C(/C=C/c1ccc(CN(CCO)CCc2c[nH]c3ccccc23)cc1)NO [DACINOSTAT]?
**A.** IC50 [4]: < 0.05 µM; IC50 [5]: 1 µM

**Q.** Which IC50 [4] does the source give for CC(=O)Nc1ccc(C(=O)Nc2ccccc2N)cc1 [TACEDINALINE] here?
**A.** Its IC50 is 4 µM.

**Q.** What about the IC50 [5] of the same molecule?
**A.** The IC50 was over 50 µM.

**Q.** Which IC50 [6] does the source give for COc1ccc(NCc2ccc(C(=O)Nc3cc(-c4ccoc4)ccc3N)cc2)cc1OC here?
**A.** The IC50 was 0.05 µM.

**Q.** What about the IC50 [7] of the same molecule?
**A.** Its IC50 is 0.07 µM.

**Q.** With COc1ccc(C(=O)Nc2ccccc2N)cc1 as the molecule, how does the IC50 [1] read?
**A.** The IC50 was 1.4 µM.

**Q.** And the IC50 [2]?
**A.** Its IC50 is over 20 µM.

**Q.** And the IC50 [3]?
**A.** Its IC50 is 3 µM.

**Q.** And the IC50 [4]?
**A.** Its IC50 is 10 µM.

**Q.** What about the IC50 [5] of the same molecule?
**A.** The IC50 was over 50 µM.

**Q.** And the IC50 [6]?
**A.** The IC50 was 2 µM.

**Q.** And the IC50 [7]?
**A.** Its IC50 is 0.9 µM.

**Q.** Which IC50 [2] does the source give for CC(=O)Nc1ccc(C(=O)Nc2cc(-c3cccs3)ccc2N)cc1 here?
**A.** Its IC50 is over 20 µM.

**Q.** And the IC50 [4]?
**A.** The IC50 was 0.5 µM.

**Q.** And the IC50 [5]?
**A.** Its IC50 is over 50 µM.

**Q.** With Nc1ccc(-c2cccs2)cc1NC(=O)c1ccc(CNC(=O)OCc2cccnc2)cc1 as the molecule, how does the IC50 [7] read?
**A.** Its IC50 is 0.1 µM.

**Q.** With COc1ccc(NCc2ccc(C(=O)Nc3ccccc3N)cc2)cc1OC as the molecule, how does the IC50 [6] read?
**A.** The IC50 was 0.44 µM.

**Q.** And the IC50 [7]?
**A.** The IC50 was 0.5 µM.

**Q.** Which IC50 [7] does the source give for COc1ccc(NCc2ccc(C(=O)Nc3cc(-c4ccccc4)ccc3N)cc2)cc1OC here?
**A.** Its IC50 is 0.1 µM.

**Q.** What does the source list for COc1ccc(C(=O)Nc2cc(-c3cccs3)ccc2N)cc1?
**A.** IC50 [1]: > 20 µM; IC50 [2]: > 20 µM; IC50 [3]: 0.15 µM; IC50 [4]: 0.4 µM; IC50 [5]: > 50 µM; IC50 [6]: 0.05 µM; IC50 [7]: 0.2 µM
